Measurements: patent US8119689B2, “Adjuvants on the basis of bisacyloxypropylcystene conjugates and derivatives and their uses in pharmaceutical compositions” (Helmholtz-Zentrum Fuer Infektionsforschung GmbH, priority 2005, dated 2012)
Entries after “also recorded” stand apart in the source; their conditions may differ.

Key:
β-gal-specific IgA = test: β-gal-specific secretory IgA in lung and vaginal lavages of i.n. immunized mice; type: in vivo, BALB/c mice; settings: i.n. immunization
Procedure: Differences were statistically significant at p<0.05 (*) with respect to mice receiving antigen alone. One representative out of four independent experiments is shown. SEM is indicated by vertical lines.
At day 38, mice were sacrificed and the final sampling was performed. Vaginal and lung ravages were obtained by flushing the organs with 1 ml of PBS supplemented with 50 mM EDTA, 0.1% BSA, and 10 mM PMSF. Lavages were then centrifuged to remove debris (10 min at 3000×g), and supernatant fluids were stored at −20° C. To determine the concentration of total IgA present in the lung and vaginal ravages, serial dilutions of the corresponding samples were incubated in microtiter plates that were previously coated with goat anti-mouse IgA (Sigma Chemie), as capture antibodies (100 μl/well). Serial dilutions of purified mouse IgA (Sigma Chemie) were used to generate a standard curve.

[1] = system: primary bone marrow-derived dendritic cells; test: In vitro stimulation of primary bone marrow-derived murine dendritic cells, surface markers by flow cytometry; type: cell-based, BALB/c mice; settings: CD11c+-gated DC, 50 ng/ml, 16 or 40 h pre-treatment
Procedure: FIG. 1: FIGS. 1A-1C show the results for In vitro studies using primary dendritic cells. Primary bone marrow-derived dendritic cell cultures were obtained from BALB/c mice by in vitro maturation of precursors using recombinant GM-CSF (5×10^4 U/ml). Mature dendritic cells were stimulated with 10 ng/ml of E. coli lypopolysaccharide (LPS) or 50 and 100 ng/ml of BPPcysGlyc4armPEG and BPPcysAda, respectively. Then, cells were double-labeled with antibodies specific for CD11c (dendritic cell marker) in combination with anti-CD40, anti-CD54, anti-CD80, anti-CD86, anti-MHC class 1, or anti-MHC class 11 antibodies. The expression of CD40, CD80, CD54, CD86, anti-MHC class 1, and MHC class 11 in CD11c-gated cells were analyzed by flow cytometry.
Experimental protocol: primary bone marrow-derived dendritic cell cultures were obtained from BALB/c mice following in vitro maturation of precursors in the presence of recombinant GM-CSF (5×10^4 U/ml), according to established protocols. Mature dendritic cells were stimulated with 10 ng/ml of E. coli lypopolysaccharide (LPS) or 5 ng/ml of BPPcysGlyc4armPEG, after 12, 24 and/or 48 h stimulation cells were analyzed by flow cytometry to assess the expression of surface markers which are relevant for their antigen presentation capacity.
In order to identify compounds which may have potential as adjuvants for in vivo applications in the vaccinology field, a first in vitro screening based on the used of primary cultures of bone marrow-derived dendritic cells was established. Dendritic cells were selected since they represent the most efficient antigen presenting cells and they play a key role by primary immune responses. In fact, they are the only cell type able to activate resting T cells initiating primary immune responses in vivo. Thus, dendritic cell cultures were treated with the tested moieties or LPS, which was used as a positive control. At different time intervals, samples were taken, stained with fluorescent-labeled antibodies specific for cellular markers critical for the antigen presenting capacities of dendritic cells, and analyzed by flow cytometry.
To test the stimulatory capacity of BPPCysAda on maturation and activation of bone marrow-derived DC, immature DC's were stimulated in vitro with BPPCysAda. Surface markers on CD11c+-gated DC were investigated by FACS analysis after 16 or 40 h pre-treatment.

spleen cells [2] = test: Cytokines secreted by in vitro re-stimulated spleen cells of immunized mice (cytometric bead array); type: in vivo
Procedure: Cytokines secreted by in vitro re-stimulated spleen cells were determined in immunized mice by CBA. Results are expressed as cytokine concentration ratios (IL-10 the most prominent detected cytokine) (B) and (D) and the stimulation index (A) and (C).
Cytometric Bead Array: Culture supernatants from proliferating cells were collected on days 2 and 4, and stored at −70° C. Determinations of IFN-γ, TNFα, IL-2, IL-4, IL-5, IL-6, IL-10 and IL-12 were performed by cytometric bead array analysis using the commercial kit from BD, according to the manufacturer's instructions. A standard curve was generated for each cytokine by using the corresponding recombinant murine cytokines (Pharmingen). Probes were incubated at room temperature for additional 2 h. The probes were then analyzed by flow cytometry as described by the protocol of BD.
To characterize the type of Th response stimulated following immunization, the content of IFN-γ, IL-2, IL-4, IL-5, IL-6, IL-10, IL-12 and TNFα was measured in supernatants from in vitro re-stimulated spleen cells (FIG. 7). […] In fact, the strong stimulation of IL-10 secretion is congruent with the role played by this cytokine in the inhibition of cytokine synthesis by Th1 cells, the enhancement of B cells proliferation and the stimulation of IgA production.

spleen cells [3] = test: In vitro T cell-mediated proliferative response of spleen cells restimulated with the adjuvant ([3H]thymidine); type: cell-based, Balb/c mice; settings: negative control 4armPEG or Ada
Procedure: FIG. 2: FIG. 2 illustrates the cellular responses of restimulated spleen cells using different concentrations of BPPcysGlyc4armPEG or BPPcysAda as adjuvant. […] Results are expressed as counts per minute (A) and (C) and stimulation indexes (cpm samples/cpm in control non stimulated cells) (B).
Experimental protocol: Spleens were removed and pooled for analysis of cellular immune responses. Cells were grown in RPMI 1640 supplemented with 10% fetal calf serum, 100 U/ml of penicillin, 50 μg/ml of streptomycin, 5×10^−5 M 2-mercaptoethanol and 1 mM L-glutamine (GIBCO BRL, Karlsruhe, Germany) and maintained at 37° C. in a humidified 5% CO2 atmosphere. Lymph node and spleen cell suspensions were adjusted to 5×10^6 cells/ml in complete medium, cells were seeded with 100 μl per well in a flat-bottomed 96-well microtiter plate (Nunc) and plates were incubated for 4 days in the presence of different concentrations of soluble β-gal. Each concentration was tested in quadruplicates. […] Cells were then harvested on paper filters (Filtermat A; Wallac, Freiburg, Germany) by using a cell harvester (Inotech, Wohlen, Switzerland), and the amount of incorporated [^3H]thymidine into the DNA of proliferating cells was determined by a […] (Wallac 1450, Micro-Trilux). The results are expressed as the arithmetic mean of [^3H]thymidine uptake in cpm. […]

CD8+ T cells = test: IFNγ-producing CD8+ T cells after stimulating splenocytes with MHC cl. I restricted β-Gal or OVA peptides; type: in vivo; settings: vs β-Gal or OVA alone-treated groups; intranasal, subcutaneous or intramuscular route (not shown)
Procedure: To assess the epitope-specific cellular immune response induced by the co-administration of BPPCysAda via intranasal, subcutaneous or intramuscular route, IFNγ-producing CD8+ T cells were analyzed after stimulating splenocytes with the MHC cl. I restricted β-Gal (TPHPARIGL) or OVA ([…]) peptides.

[4] = supernatants of in vitro re-stimulated spleen cells

CCCCCCCCCCCCCCCC(=O)OCC(CSC[C@H](N)C(=O)N[C@H]1[C@@H](O)[C@H](n2cnc3c(N)ncnc32)O[C@@H]1CO)OC(=O)CCCCCCCCCCCCCCC (single isomer, unassigned) [BPPcysAda, S-[2,3-bis(palmitoyloxy)-(2S or 2R)-propyl]-L-cysteinylcarboxy-3′Amino-3′-deoxyadenosine]
β-gal-specific IgA in vaginal lavages (β-gal-specific IgA; day 38): significantly higher levels | β-gal-specific IgA in lung lavages (BAL) (β-gal-specific IgA; day 38, vs antigen alone): significantly higher levels | expression of MHC class I and II molecules [1]: increased expression | expression of the adhesion molecule ICAM-1 (CD54) [1]: enhanced expression | expression of the co-stimulatory molecule CD86 [1]: up-regulated | IL-4 levels (spleen cells [2]; all BPPcysAda co-administered groups, intranasal): induced | type of immune response induced (spleen cells [2]; mucosal and parenteral co-administration): Th2 dominated immune response | IFNγ secretion (spleen cells [2]; [4]): weaker increase; also recorded: minor secretion | IL-2 secretion (spleen cells [2]; [4]): induced; also recorded: weaker increase; also recorded: minor secretion | IL-6 secretion (spleen cells [2]; [4]): weaker increase | IL-10 levels (spleen cells [2]; [4]): significantly increased | TNFα secretion (spleen cells [2]; [4]): weaker increase | proliferative response of restimulated spleen cells (stimulation index) (spleen cells [3]): efficient proliferative response | number of IFNγ-secreting CD8+ T cells (CD8+ T cells): significantly decreased
